{"source": "patent US20050282910A1", "about": "“Methods of application of chemical compounds having therapeutic activities in treating cancers” (priority 2003, published 2005)", "key": {"[1]": {"test_system": "human leukemia MDR cell line K562/adr", "experiment": "Reversal of P-glycoprotein-mediated drug resistance by Schisandrin A, Schisandrol A, Schisantherin A, MTT cytotoxicity of anticancer agents", "format": "cell-based", "details": "for IC50: Homo sapiens; for IC50 (ng/ml) +Schisandrin A: anticancer agent in the presence of Schisandrin A (10 μg/ml); for IC50 (ng/ml) +Schisantherin A: anticancer agent in the presence of Schisantherin A (10 μg/ml)", "protocol": "Assays were carried out in triplicate against human leukemia MDR cell line K562/adr, human breast cancer MDR cell line MCF7/adr, and human epidermoid carcinoma MDR cell line KBv200."}, "KBv200": {"test_system": "KBv200", "experiment": "Reversal of drug resistance by ethanol extracts of Schisandra chinensis fruit, MTT cytotoxicity of anticancer agents", "details": "Homo sapiens, KBv200, 72 h, read-out: IC50 (ng/ml) −ethanol extract"}, "[2]": {"test_system": "human epidermoid carcinoma MDR cell line KBv200", "details": "for IC50 (ng/ml) +Schisandrin A: anticancer agent in the presence of Schisandrin A (10 μg/ml); for IC50 (ng/ml) +Schisandrin A / IC50 (ng/ml) +Schisantherin A: 72 hours; for IC50 (ng/ml) +Schisantherin A: anticancer agent in the presence of Schisantherin A (10 μg/ml)"}, "K562/adr": {"test_system": "K562/adr", "experiment": "Reversal of drug resistance by ethanol extracts of Schisandra chinensis fruit, MTT cytotoxicity of anticancer agents", "format": "cell-based, human", "details": "for IC50 (ng/ml) +ethanol extract: anticancer agent in the presence of ethanol extracts (50 μg/ml)", "protocol": "Assays were carried out in triplicate against human MDR cancer cell lines K562/adr, KBv200, and MCF7/adr. […] Alternatively, flow cytometry assays using FACS Calibur equipped with software Cellquest 3.1f (Becton-Dickinson, Holbrook, N.J.) were applied to count the cell numbers in each sample."}, "[3]": {"test_system": "human epidermoid carcinoma MDR cell line KBv200", "experiment": "cells", "details": "KBv200, 72 h"}, "[4]": {"test_system": "human breast cancer MDR cell line MCF7/adr", "details": "for IC50 (ng/ml) +Schisandrin A: anticancer agent in the presence of Schisandrin A (10 μg/ml); for IC50 (ng/ml) +Schisandrin A / IC50 (ng/ml) +Schisantherin A: 72 hours; for IC50 (ng/ml) +Schisantherin A: anticancer agent in the presence of Schisantherin A (10 μg/ml)"}, "[5]": {"test_system": "human breast cancer MDR cell line MCF7/adr", "experiment": "cells", "details": "NCI/ADR-RES, 72 h"}, "MCF7/adr": {"test_system": "MCF7/adr", "experiment": "Reversal of drug resistance by ethanol extracts of Schisandra chinensis fruit, MTT cytotoxicity of anticancer agents", "details": "for IC50: Homo sapiens, NCI/ADR-RES, 72 h, read-out: IC50 (ng/ml) −ethanol extract; for IC50 (ng/ml) +ethanol extract: anticancer agent in the presence of ethanol extracts (50 μg/ml), 72 hours"}, "HL60/adr": {"test_system": "HL60/adr", "experiment": "Reversal of MRP1-mediated drug resistance, MTT cytotoxicity of anticancer agents", "format": "cell-based, human", "details": "HL60/adr; for IC50: Homo sapiens, HL60/ADR, 72 h", "protocol": "Assays were carried out in triplicate against MDR cancer cell HL60/adr. MTT assays as described previously (X."}, "SMMC7721": {"test_system": "SMMC7721", "experiment": "Enhancement of anticancer agent-induced apoptosis and necrosis, Anexin V-FITC/PI", "format": "cell-based, human", "details": "SMMC7721; doxorubicin 0.5 μg/ml, Schisandrin B 20 μg/ml; 48 hours", "protocol": "(§1) To illustrate the activities of Schisandrin B or its analogs enhancing the apoptosis of cancer cells induced by an anticancer agent according to the present disclosure, human cancer cell line SMMC7721, a non-drug-resistant hepatic cancer cell line, and MCF7, a non-drug-resistant breast cancer cell line, were selected for use. Assays were carried out in triplicates against SMMC7721 or MCF7. […] Cells were collected and the apoptotic cells and necrotic cell percentages were determined using Anexin V-FITC/PI kit (Sigma, St. Louis, Mo., USA) according to manufacturer's instructions. Alternatively, the apoptotic and necrotic cell percentages were measured using DNA Plus kit (Becton-Dickinson, USA) according to the manufacturer's instructions."}, "MCF7": {"test_system": "MCF7", "experiment": "Enhancement of anticancer agent-induced apoptosis and necrosis, Anexin V-FITC/PI", "format": "cell-based, human", "details": "MCF7; doxorubicin 0.5 μg/ml, Schisandrin B 20 μg/ml; 48 hours", "protocol": "as §1"}, "[6]": {"details": "read-out: IC50 (ng/ml) −Schisandrin A"}, "[7]": {"details": "read-out: IC50 (ng/ml) −Schisantherin A"}}, "note": "Like-named read-outs stand apart in the source and are kept apart here.", "data": [{"smiles": "COc1cccc2c1C(=O)c1c(O)c3c(c(O)c1C2=O)C[C@@](O)(C(C)=O)C[C@@H]3O[C@H]1C[C@H](N)[C@H](O)[C@H](C)O1", "note": "[Daunorubicin]", "values": [{"measurement": "IC50", "setting": "[1]; K562/adr, anticancer agent in the absence of Schisandrin A, 72 hours, read-out: IC50 (ng/ml) −Schisandrin A", "result": "4780 ± 1380", "unit": "ng/mL"}, {"measurement": "IC50", "setting": "[1]; K562/adr, anticancer agent in the absence of Schisantherin A, 72 hours, read-out: IC50 (ng/ml) −Schisantherin A", "result": "1300 ± 293", "unit": "ng/mL"}, {"measurement": "IC50 (ng/ml) +Schisandrin A", "setting": "[1]; K562/adr, 72 hours", "result": "67.2 ± 21.3", "unit": "ng/mL"}, {"measurement": "IC50 (ng/ml) +Schisantherin A", "setting": "[1]; K562/adr, 72 hours", "result": "71 ± 22", "unit": "ng/mL"}, {"measurement": "IC50", "setting": "KBv200", "result": "20 ± 8", "unit": "ng/mL"}, {"measurement": "IC50 (ng/ml) +Schisandrin A", "setting": "[2]", "result": "2.47 ± 0.9", "unit": "ng/mL"}, {"measurement": "IC50 (ng/ml) +Schisantherin A", "setting": "[2]", "result": "3.4 ± 1.3", "unit": "ng/mL"}, {"measurement": "IC50 (ng/ml) +ethanol extract", "setting": "K562/adr; 72 hours", "result": "150 ± 19", "unit": "ng/mL"}, {"measurement": "IC50", "setting": "[3]; [6]", "result": "26.9 ± 8.1", "unit": "ng/mL"}, {"measurement": "IC50", "setting": "[3]; [7]", "result": "26.9 ± 4.3", "unit": "ng/mL"}, {"measurement": "IC50 (ng/ml) +Schisandrin A", "setting": "[4]", "result": "245 ± 46", "unit": "ng/mL"}, {"measurement": "IC50 (ng/ml) +Schisantherin A", "setting": "[4]", "result": "58.8 ± 21", "unit": "ng/mL"}, {"measurement": "IC50", "setting": "[5]; [6]", "result": "2560 ± 413", "unit": "ng/mL"}, {"measurement": "IC50", "setting": "[5]; [7]", "result": "812 ± 193", "unit": "ng/mL"}, {"measurement": "IC50", "setting": "MCF7/adr", "result": "320 ± 71", "unit": "ng/mL"}, {"measurement": "IC50 (ng/ml) +ethanol extract", "setting": "MCF7/adr; MCF7/adr", "result": "31 ± 10", "unit": "ng/mL"}]}, {"smiles": "CC(=O)O[C@H]1C(=O)[C@@]2(C)[C@H]([C@H](OC(=O)c3ccccc3)[C@]3(O)C[C@H](OC(=O)[C@H](O)[C@@H](NC(=O)c4ccccc4)c4ccccc4)C(C)=C1C3(C)C)[C@]1(OC(C)=O)CO[C@@H]1C[C@@H]2O", "note": "[Taxol]", "values": [{"measurement": "IC50", "setting": "[1]; K562/Adr, 72 h, K562/adr, anticancer agent in the absence of Schisandrin A, 72 hours, read-out: IC50 (ng/ml) −Schisandrin A", "result": "38 ± 11", "unit": "ng/mL"}, {"measurement": "IC50", "setting": "[1]; K562/Adr, 72 h, K562/adr, anticancer agent in the absence of Schisantherin A, 72 hours, read-out: IC50 (ng/ml) −Schisantherin A", "result": "38 ± 12", "unit": "ng/mL"}, {"measurement": "IC50 (ng/ml) +Schisandrin A", "setting": "[1]; K562/adr, 72 hours", "result": "6.4 ± 3.2", "unit": "ng/mL"}, {"measurement": "IC50 (ng/ml) +Schisantherin A", "setting": "[1]; K562/adr, 72 hours", "result": "1.1 ± 1.0", "unit": "ng/mL"}, {"measurement": "RF (reversal folds of drug resistance)", "setting": "[1]; K562/adr, by Schisandrin A (10 μg/ml)", "result": 5.9}, {"measurement": "RF (reversal folds of drug resistance)", "setting": "[1]; K562/adr, by Schisantherin A (10 μg/ml)", "result": 34.5}, {"measurement": "IC50 (ng/ml) +Schisandrin A", "setting": "[2]", "result": "1.91 ± 1.2", "unit": "ng/mL"}, {"measurement": "IC50 (ng/ml) +Schisantherin A", "setting": "[2]", "result": "2.4 ± 0.7", "unit": "ng/mL"}, {"measurement": "RF (reversal folds of drug resistance)", "setting": "[2]; by Schisandrin A (10 μg/ml)", "result": 10.6}, {"measurement": "RF (reversal folds of drug resistance)", "setting": "[2]; by Schisantherin A (10 μg/ml)", "result": 8.4}, {"measurement": "IC50", "setting": "K562/adr; Homo sapiens, anticancer agent in the absence of ethanol extracts, 72 hours, read-out: IC50 (ng/ml) −ethanol extract", "result": "110 ± 20", "unit": "ng/mL"}, {"measurement": "IC50 (ng/ml) +ethanol extract", "setting": "K562/adr; 72 hours", "result": "41 ± 24", "unit": "ng/mL"}, {"measurement": "RF (reversal folds of drug resistance)", "setting": "K562/adr; by ethanol extracts (50 μg/ml)", "result": 2.7}, {"measurement": "IC50", "setting": "[3]; [6]", "result": "20.2 ± 2.8", "unit": "ng/mL"}, {"measurement": "IC50", "setting": "[3]; [7]", "result": "20.2 ± 3.8", "unit": "ng/mL"}, {"measurement": "IC50 (ng/ml) +Schisandrin A", "setting": "[4]", "result": "6.1 ± 1.9", "unit": "ng/mL"}, {"measurement": "IC50 (ng/ml) +Schisantherin A", "setting": "[4]", "result": "6.3 ± 3.1", "unit": "ng/mL"}, {"measurement": "RF (reversal folds of drug resistance)", "setting": "[4]; by Schisandrin A (10 μg/ml)", "result": 6.6}, {"measurement": "RF (reversal folds of drug resistance)", "setting": "[4]; by Schisantherin A (10 μg/ml)", "result": 6.4}, {"measurement": "IC50", "setting": "[5]; [6]", "result": "40.5 ± 11", "unit": "ng/mL"}, {"measurement": "IC50", "setting": "[5]; [7]", "result": "40.6 ± 20.3", "unit": "ng/mL"}, {"measurement": "IC50 (ng/ml) +Schisandrin A", "setting": "HL60/adr; anticancer agent in the presence of Schisandrin A (10 μg/ml), 72 hours", "result": "4.1 ± 1.4", "unit": "ng/mL"}, {"measurement": "IC50 (ng/ml) +Schisandrin B", "setting": "HL60/adr; anticancer agent in the presence of Schisandrin B (10 μg/ml), 72 hours", "result": "<1", "unit": "ng/mL"}, {"measurement": "IC50 (ng/ml) +Schisantherin A", "setting": "HL60/adr; anticancer agent in the presence of Schisantherin A (10 μg/ml), 72 hours", "result": "4.3 ± 1.4", "unit": "ng/mL"}, {"measurement": "RF (reversal folds of drug resistance)", "setting": "HL60/adr; by Schisandrin A (10 μg/ml)", "result": 7.8}, {"measurement": "RF (reversal folds of drug resistance)", "setting": "HL60/adr; by Schisandrin B (10 μg/ml)", "result": ">3"}, {"measurement": "RF (reversal folds of drug resistance)", "setting": "HL60/adr; by Schisantherin A (10 μg/ml)", "result": 7.4}, {"measurement": "IC50", "setting": "HL60/adr; anticancer agent in the absence of Schisandrin A, 72 hours, read-out: IC50 (ng/ml) −Schisandrin A", "result": "32 ± 9", "unit": "ng/mL"}, {"measurement": "IC50", "setting": "HL60/adr; anticancer agent in the absence of Schisandrin B, 72 hours, read-out: IC50 (ng/ml) −Schisandrin B", "result": 3, "unit": "ng/mL"}, {"measurement": "IC50", "setting": "HL60/adr; anticancer agent in the absence of Schisantherin A, 72 hours, read-out: IC50 (ng/ml) −Schisantherin A", "result": "32 ± 9", "unit": "ng/mL"}, {"measurement": "IC50", "setting": "MCF7/adr", "result": "73 ± 27", "unit": "ng/mL"}, {"measurement": "IC50 (ng/ml) +ethanol extract", "setting": "MCF7/adr; MCF7/adr", "result": "25 ± 12", "unit": "ng/mL"}, {"measurement": "RF (reversal folds of drug resistance)", "setting": "MCF7/adr; MCF7/adr, by ethanol extracts (50 μg/ml)", "result": 2.9}]}, {"smiles": "COc1cccc2c1C(=O)c1c(O)c3c(c(O)c1C2=O)C[C@@](O)(C(=O)CO)C[C@@H]3O[C@H]1C[C@H](N)[C@H](O)[C@H](C)O1", "note": "[doxorubicin]", "values": [{"measurement": "IC50", "setting": "[1]; K562/Adr, read-out: IC50 of doxorubicin toward K562/adr, in the absence of Schisandrol A", "result": "875 ± 248", "unit": "ng/mL"}, {"measurement": "IC50", "setting": "[1]; K562/Adr, read-out: IC50 of doxorubicin toward K562/adr, in the presence of Schisandrol A (10 μg/ml)", "result": "168 ± 43", "unit": "ng/mL"}, {"measurement": "Apoptotic(%)", "setting": "SMMC7721", "result": "5.2 ± 2.6", "unit": "%"}, {"measurement": "Necrotic(%)", "setting": "SMMC7721", "result": "16.5 ± 4.3", "unit": "%"}, {"measurement": "Apoptotic + necrotic (%)", "setting": "MCF7", "result": "7.2 ± 0.8", "unit": "%"}]}]}
